Source: paper PMC10728895, “Stapled Phd Peptides Inhibit Doc Toxin Induced Growth Arrest in Salmonella” (ACS Chemical Biology, 2023)
Entries after “also recorded” stand apart in the source; their conditions may differ. Positions of bridges follow the written chain, without caps; N, C: chain ends. Non-standard residues stand in square brackets, D forms with d. Residues, ends and D or L forms follow the SMILES beside them. *: point of attachment. 5FAM = O=C1OC2(c3ccc(O)cc3Oc3cc(O)ccc32)c2ccc(C(=O)*)cc21; S5 = C=CCCC[C@](C)(N)C(=O)O; Nle = CCCC[C@H](N)C(=O)O

How the values were obtained:
E. coli MG1655 = test: Peptide uptake in E. coli by flow cytometry; assay type: cell-based; details: 5 μM FAM-labeled peptide in PBS, 2 h, 37 °C, E. coli MG1655, trypan blue quench, mean ± SD
Description: E. coli MG1655 strain was grown in LB medium to an OD600 of around 0.5. Approximately 10^7 cells were washed once with PBS and subsequently incubated with 5 μM of the indicated 5(6)-carboxyfluorescein-labeled Phd^52–73 peptide in PBS (500 μL) for 2 h at 37 °C. Bacteria were washed twice with PBS, and trypan blue (1 mg mL^–1) in PBS was added and incubated for 10 min at RT. Bacteria were washed an additional time with PBS and resuspended in 2 mL of PBS. Flow cytometry analysis was performed using a ThermoFisher Attune NxT and a blue laser (BL1) for fluorescein excitation.

[1] = system: S. typhimurium (14028s) glmS::mCherry strain; test: Peptide uptake in S. typhimurium by flow cytometry; assay type: cell-based; details: RT
Description: S. typhimurium (14028s) glmS::mCherry strain was grown overnight in LB medium containing 1% glucose. The culture was then diluted to an OD600 of approximately 0.1 into 200 μL of fresh M9 minimal medium supplemented with 0.5% arabinose containing 2 or 10 μM of the indicated 5(6)-carboxyfluorescein-labeled Phd^52–73 peptide. The samples were incubated on the bench at RT for 4 or 22 h with no access to light. Bacteria were then spun down, washed with 1 mL of PBS solution, and finally resuspended in 1 mL of PBS solution for flow cytometry analysis (BD LSR II). Constitutively expressed mCherry was used to discriminate bacteria from the debris in each sample.

DocSTm toxin = details: DocSTm 5 μM, peptide 50 μM; for Average Tm of DocSTm in the presence of peptide: pH 8.0, average ± SD, replicates 3-48 (Table S3)
How it was run: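 Thermal shift with 5 μM recombinant Doc toxin and 50 μM Phd peptides in 20 mM K2HPO4, 50 mM (NH4)2SO4, pH 8.0, SYPRO Orange 3×, ramped 25–95 °C. Tm from Boltzmann fit; ΔTm is peptide-bound minus free DocSTm Tm, triplicates.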

[2] = system: DocSTm (phosphorylation of EF-TuSTm); test: Dot blot EF-Tu phosphorylation assay; assay type: biochemical, Salmonella Typhimurium; details: DocSTm 1 μM, EF-TuSTm 3 μM, peptide 10 μM to 5 nM (3-fold dilutions), 16 h RT, dot blot anti-phosphothreonine; compared at three times the DocSTm concentration; two independent experiments
Description: Samples were prepared in assay buffer [50 mM HEPES (pH 7.5), 25 mM (NH4)2SO4, 2 mM TCEP, 2 mM MgCl2, and 1 mM ATP] with a final concentration of recombinant Doc at 1 μM, recombinant EF-Tu at 3 μM, and varying concentrations of synthetic Phd peptides (final concentrations: 10 μM to 5 nM). EF-Tu (3 μM) in assay buffer was used as a negative control (no Doc and Phd peptide), while EF-Tu (3 μM) with Doc (1 μM) in assay buffer was used as a positive control (no Doc inhibitor). The final sample volume was 10 μL. Samples were incubated for 16 h at RT and subsequently spotted on a nitrocellulose membrane. Phosphorylated EF-Tu was detected by immunodecoration using a rabbit monoclonal antiphosphothreonine antibody (Abcam, ab218195) at 1:2000 dilution (1 h at 4 °C), followed by incubation with a goat antirabbit IgG (H + L) HRP conjugate antibody (Advansta) at 1:10,000 dilution (1 h at RT). Chemiluminescence was developed using the HRP Luminata Kit (Merck, WBLUR0100) and captured with an ImageQuant LAS4000 Western blot imaging system (GE HealthCare). Each peptide was tested in two independent experiments.

[3] = system: S. typhimurium (14028s) Δphd-doc::Km strain expressing DocSTm (pBAD33::doc); test: Growth rescue experiments in DocSTm-expressing S. typhimurium; assay type: cell-based; details: three independent experiments; for Rescue from DocSTm-induced growth inhibition (OD600): 10 μM synthetic peptide, 24 h, 37 °C, start OD600 0.1, M9 minimal medium with 0.5% arabinose
Description: S. typhimurium (14028s) Δphd-doc::Km strains carrying pCA24N (empty vector or encoding for the Phd^52–73 variant) and pBAD33::doc plasmids were grown overnight in LB medium containing 1% glucose and supplemented with 100 μg/mL carbenicillin and 34 μg/mL chloramphenicol antibiotics. Cultures were then diluted to an OD600 of approximately 0.1 into 200 μL of fresh M9 minimal medium supplemented with 0.5% arabinose, 100 μg/mL carbenicillin, 34 μg/mL chloramphenicol, and containing 2 or 10 μM of the indicated synthetic Phd^52–73 peptide. Untreated DocSTm-expressing S. typhimurium as well as S. typhimurium coexpressing Doc and Phd^52–73 peptides were included as controls in each experiment. After 2 h of incubation at RT, samples were transferred to a flat-bottom 96-well plate (Greiner), and OD600 was monitored every 15 min for 24 h at 37 °C using an Infinite M Plex plate reader (Tecan LifeScience) and orbital shaking with 1 mm amplitude. Peptides were tested in three independent experiments.

Row | Structure (SMILES) | Cellular uptake into E. coli (penetration efficiency) (E. coli MG1655) | Average Tm of DocSTm in the presence of peptide (DocSTm toxin) [°C] | Rescue from DocSTm-induced growth inhibition (OD600) [3] | also measured
1 | CCCC[C@H](NC(=O)[C@H](Cc1c[nH]c2ccccc12)NC(=O)c1ccc2c(c1)C(=O)OC21c2ccc(O)cc2Oc2cc(O)ccc21)C(=O)N[C@@H](CC(=O)O)C(=O)N[C@@H](CC(=O)O)C(=O)N[C@@H](CCC(=O)O)C(=O)N[C@@H](Cc1ccccc1)C(=O)N[C@@H](C)C(=O)N[C@@H](C)C(=O)N[C@H](C(=O)N[C@@H](CCCC)C(=O)N[C@@H](C)C(=O)N[C@H](C(=O)N[C@@H](Cc1c[nH]cn1)C(=O)NCC(=O)N[C@@H](CC(N)=O)C(=O)N[C@@H](CCC(=O)O)C(=O)N[C@@H](CC(C)C)C(=O)N[C@@H](CCCNC(=N)N)C(=O)N[C@@H](CCC(=O)O)C(=O)N[C@@H](CC(C)C)C(=O)N[C@@H](C)C(=O)N[C@@H](CC(=O)O)C(=O)N[C@@H](CCCCN)C(=O)O)C(C)C)[C@@H](C)CC [FAM-1] (5FAM-W[Nle]DDEFAAI[Nle]AVHGNELRELADK-OH) | extremely low uptake | – | – | Uptake into S. typhimurium (% fluorescent cells) ([1]; 10 μM FAM-labeled peptide, 22 h): less than 1%; Uptake into S. typhimurium, in words ([1]; 2 and 10 μM FAM-labeled peptide, 4 and 22 h): very low uptake
2 | CCCC[C@H](NC(=O)[C@H](Cc1c[nH]c2ccccc12)NC(=O)c1ccc2c(c1)C(=O)OC21c2ccc(O)cc2Oc2cc(O)ccc21)C(=O)N[C@@H](CCCNC(=N)N)C(=O)N[C@@H](CC(=O)O)C(=O)N[C@@H](CCC(=O)O)C(=O)N[C@@H](Cc1ccccc1)C(=O)N[C@@H](C)C(=O)N[C@@H](C)C(=O)N[C@H](C(=O)N[C@@H](CCCC)C(=O)N[C@@H](CCCNC(=N)N)C(=O)N[C@H](C(=O)N[C@@H](Cc1c[nH]cn1)C(=O)NCC(=O)N[C@@H](CC(N)=O)C(=O)N[C@@H](CCC(=O)O)C(=O)N[C@@H](CC(C)C)C(=O)N[C@@H](CCCNC(=N)N)C(=O)N[C@@H](CCC(=O)O)C(=O)N[C@@H](CC(C)C)C(=O)N[C@@H](C)C(=O)N[C@@H](CC(=O)O)C(=O)N[C@@H](CCCCN)C(=O)O)C(C)C)[C@@H](C)CC [FAM-16] (5FAM-W[Nle]RDEFAAI[Nle]RVHGNELRELADK-OH) | 7–14% | – | – | –
3 | CCCC[C@H](NC(=O)[C@H](Cc1c[nH]c2ccccc12)NC(=O)c1ccc2c(c1)C(=O)OC21c2ccc(O)cc2Oc2cc(O)ccc21)C(=O)N[C@@H](CCCNC(=N)N)C(=O)N[C@@H](CC(=O)O)C(=O)N[C@@H](CCC(=O)O)C(=O)N[C@@H](Cc1ccccc1)C(=O)N[C@@H](C)C(=O)N[C@@H](C)C(=O)N[C@H](C(=O)N[C@@H](CCCC)C(=O)N[C@@H](CCCNC(=N)N)C(=O)N[C@H](C(=O)N[C@@H](Cc1c[nH]cn1)C(=O)NCC(=O)N[C@@]1(C)CCCC=CCCC[C@@](C)(C(=O)N[C@@H](CC(C)C)C(=O)N[C@@H](C)C(=O)N[C@@H](CC(=O)O)C(=O)N[C@@H](CCCCN)C(=O)O)NC(=O)[C@H](CCCNC(=N)N)NC(=O)[C@H](CC(C)C)NC(=O)[C@H](CCC(=O)O)NC1=O)C(C)C)[C@@H](C)CC [FAM-18] (5FAM-W[Nle]RDEFAAI[Nle]RVHG[S5]ELR[S5]LADK-OH; staple 15-19) | 7–14% | – | – | Uptake into S. typhimurium (penetration efficiency) ([1]; 10 μM FAM-labeled peptide, 4 or 22 h, M9 minimal medium): 9–30%
4 | CCCC[C@H](NC(=O)[C@H](Cc1c[nH]c2ccccc12)NC(=O)c1ccc2c(c1)C(=O)OC21c2ccc(O)cc2Oc2cc(O)ccc21)C(=O)N[C@@H](CCCNC(=N)N)C(=O)N[C@@H](CC(=O)O)C(=O)N[C@@H](CCC(=O)O)C(=O)N[C@@H](Cc1ccccc1)C(=O)N[C@@H](CCCNC(=N)N)C(=O)N[C@@H](C)C(=O)N[C@H](C(=O)N[C@@H](CCCC)C(=O)N[C@@H](CCCNC(=N)N)C(=O)N[C@H](C(=O)N[C@@H](Cc1c[nH]cn1)C(=O)NCC(=O)N[C@@H](CC(N)=O)C(=O)N[C@@H](CCC(=O)O)C(=O)N[C@@H](CC(C)C)C(=O)N[C@@H](CCCNC(=N)N)C(=O)N[C@@H](CCC(=O)O)C(=O)N[C@@H](CC(C)C)C(=O)N[C@@H](C)C(=O)N[C@@H](CC(=O)O)C(=O)N[C@@H](CCCCN)C(=O)O)C(C)C)[C@@H](C)CC [FAM-19] (5FAM-W[Nle]RDEFRAI[Nle]RVHGNELRELADK-OH) | 7–14% | – | – | –
5 | CCCC[C@H](NC(=O)[C@H](Cc1c[nH]c2ccccc12)NC(C)=O)C(=O)N[C@@H](CC(=O)O)C(=O)N[C@@H](CC(=O)O)C(=O)N[C@@H](CCC(=O)O)C(=O)N[C@@H](Cc1ccccc1)C(=O)N[C@@H](C)C(=O)N[C@@H](C)C(=O)N[C@H](C(=O)N[C@@H](CCCC)C(=O)N[C@@H](C)C(=O)N[C@H](C(=O)N[C@@H](Cc1c[nH]cn1)C(=O)NCC(=O)N[C@@H](CC(N)=O)C(=O)N[C@@H](CCC(=O)O)C(=O)N[C@@H](CC(C)C)C(=O)N[C@@H](CCCNC(=N)N)C(=O)N[C@@H](CCC(=O)O)C(=O)N[C@@H](CC(C)C)C(=O)N[C@@H](C)C(=O)N[C@@H](CC(=O)O)C(=O)N[C@@H](CCCCN)C(=O)O)C(C)C)[C@@H](C)CC [Peptide 1] (Ac-W[Nle]DDEFAAI[Nle]AVHGNELRELADK-OH) | – | 71.0 ± 1.1 | consistent and full rescue; also recorded: growth rescue was also observed | ΔTm (thermal shift) of DocSTm in the presence of peptide (DocSTm toxin; SYPRO Orange 3×, 20 mM K2HPO4, 50 mM (NH4)2SO4, pH 8.0, average Tm with peptide minus average Tm of free DocSTm, mean ± SD): 28.8 ± 2.7 °C; Inhibition of EF-TuSTm phosphorylation by DocSTm (concentration needed for full inhibition) [2]: fully inhibited
6 | CCCC[C@H](NC(=O)[C@H](Cc1c[nH]c2ccccc12)NC(C)=O)C(=O)N[C@@H](CC(N)=O)C(=O)N[C@@H](CC(N)=O)C(=O)N[C@@H](CCC(=O)O)C(=O)N[C@@H](Cc1ccccc1)C(=O)N[C@@]1(C)CCCC=CCCC[C@@](C)(C(=O)N[C@H](C(=O)N[C@@H](Cc2c[nH]cn2)C(=O)NCC(=O)N[C@@H](CCCNC(=N)N)C(=O)N[C@@H](CCC(N)=O)C(=O)N[C@@H](CC(C)C)C(=O)N[C@@H](CCCNC(=N)N)C(=O)N[C@@H](CCCNC(=N)N)C(=O)N[C@@H](CC(C)C)C(=O)N[C@@H](C)C(=O)N[C@@H](CCCNC(=N)N)C(=O)N[C@@H](CCCCN)C(=O)O)C(C)C)NC(=O)[C@H](CCCC)NC(=O)[C@H]([C@@H](C)CC)NC(=O)[C@H](C)NC1=O [Peptide 36] (Ac-W[Nle]NNEF[S5]AI[Nle][S5]VHGRQLRRLARK-OH; staple 7-11) | – | 61.3 ± 1.1 | reproducibly rescued DocSTm-induced growth arrest; also recorded: growth rescue was also observed; also recorded: fully rescued | Growth rescue kinetics ([3]; 10 μM peptide, growth curves over 24 h at 37 °C): faster growth rescue than peptide 1; also recorded: more rapidly than 1; also recorded: faster rate than the unmodified peptide 1
